The source of these data is patent US20170135990A1, “PHARMACEUTICAL COMPOSITIONS COMPRISING A 5,5-FUSED HETEROARYLENE FLAVIVIRIDAE INHIBITOR AND THEIR USE FOR TREATING OR PREVENTING FLAVIVIRIDAE INFECTION” (IDENIX PHARMACEUTICALS LLC, priority 2014, published 2017).

Data set [1] in a line: aqueous solubility and permeability, BCS classification. Type of data set: physicochemical. From the text:
Compound A1 has a low aqueous solubility and low permeability and, thus, is classified as a BCS class IV compound, which presents a significant formulation challenge. Cook et al., AAPS J. 2008, 10, 306-310.

Data set [2] is described as follows: pharmacokinetic study in the monkey, PEG200 solution formulation. Type of data set: in vivo. The settings on record: 500 mg/kg, fed conditions. On the procedure: Initial pharmacokinetic studies on compound A1 were performed both in vitro and in the monkey using a solution formulation containing PEG200. Compound A1 in the PEG200 solution was determined to have bioavailability of 0.1% F when administered at a dose of 500 mg/kg to the monkey under fed conditions.

For `COC(=O)N[C@H](C(=O)N1CCC[C@H]1c1nc2cc(-c3csc4c(-c5ccc(-c6cnc([C@@H]7CCCN7C(=O)[C@H](NC(=O)OC)c7ccccc7)[nH]6)cc5)csc34)ccc2[nH]1)C(C)C` [compound A1, methyl N-[(1R)-2-[(2S)-2-[5-[4-[6-[2-[(2S)-1-[(2S)-2-(methoxycarbonylamino)-3-methyl-butanoyl]pyrrolidin-2-yl]-3H-benzimidazol-5-yl]thieno[3,2-b]thiophen-3-yl]phenyl]-1H-imidazol-2-yl]pyrrolidin-1-yl]-2-oxo-1-phenyl-ethyl]carbamate], in data set [1], the aqueous solubility entry is “low”. This molecule returned a bioavailability in data set [2] of 0.1 % F.
